From patent US7592373B2 (Boehringer Ingelheim International GmbH, priority 2003, dated 2009)
Structures can show the parent of a compound that is named as a salt.

## CC1CCCC(C)N1Cc1ccc(NC(=O)C#Cc2ccc(-c3ccc(Cl)cc3)cc2)cc1 (centres unmarked) [Example 3.9, 3-(4′-chlorobiphenyl-4-yl)propynoic acid-[4-(2,6-dimethylpiperidin-1-ylmethyl)phenyl]amide]
  melting point: 158 to 163 °C

## O=C(C#Cc1ccc(Cl)cc1)Nc1ccc2c(ccn2CCN2CCCC2)c1 [Example 4.9, 3-(4-chlorophenyl)propynoic acid-[1-(2-pyrrolidin-1-ylethyl)-1H-indol-5-yl]amide]
  melting point: 135 to 144 °C

## CNC1(c2ccc(C#CC(=O)Nc3ccc(-c4ccc(Cl)cc4)cc3)cc2)CC1 (as salt: trifluoroacetate) [Example 1.423, 3-[4-(1-methylaminocyclopropyl)phenyl]propynoic acid-(4′-chlorobiphenyl-4-yl)amide trifluoroacetate]
  melting point: 217.3 °C

## O=C(C#Cc1ccc(-c2ccc(Cl)cc2)cc1)Nc1ccc(CN2CCCCC2)c(Cl)c1 [Example 3.20, 3-(4′-chlorobiphenyl-4-yl)propynoic acid-(3-chloro-4-piperidin-1-ylmethylphenyl)amide]
  melting point: 277 to 281 °C

## O=C(C#Cc1ccc(C(F)(F)F)cc1Cl)Nc1ccc2nc(N3CCCCC3)ccc2c1 [Example 7.1, 3-(2-chloro-4-trifluoromethylphenyl)propynoic acid-(2-piperidin-1-ylquinolin-6-yl)amide]
  melting point: 176 to 179 °C

## O=C(CCc1ccc(CN2CC[C@@H](O)C2)cc1)Nc1ccc(-c2ccc(Cl)cc2)cc1 [Example 6.29, N-(4′-chlorobiphenyl-4-yl)-3-[4-((R)-3-hydroxypyrrolidin-1-ylmethyl)phenyl]propionamide]
  melting point: 169 to 170 °C

## CCN(CC)CCOc1ccc(NC(=O)C#Cc2ccc(Cl)cc2Cl)c(Cl)c1 (as salt: hydrochloride) [Example 4.8, 3-(2,4-dichlorophenyl)propynoic acid-[2-chloro-4-(2-diethylaminoethoxy)phenyl]amide]
  melting point: 128 to 130 °C

## COc1cc(NC(=O)C#Cc2ccc(C(F)(F)F)cc2Cl)ccc1OCCN1CC(C)CC(C)C1 (centres unmarked) [Example 4.271, 3-(2-chloro-4-trifluoromethylphenyl)propynoic acid-{4-[2-(3,5-dimethylpiperidin-1-yl)ethoxy]-3-methoxyphenyl}amide]
  melting point: 196 to 201 °C

## O=C(C#Cc1ccc(CCN2CCCC2)cc1)Nc1ccc(Cl)cc1 [Example 2.2, 3-[4-(2-pyrrolidin-1-ylethyl)phenyl]propynoic acid-4-chlorophenylamide]
  melting point: 153 to 154 °C

## CC1CCN(Cc2ccc(NC(=O)C#Cc3ccc(-c4ccc(Cl)cc4)cc3)cc2)CC1 [Example 3.14, 3-(4′-chlorobiphenyl-4-yl)propynoic acid-[4-(4-methylpiperidin-1-ylmethyl)phenyl]amide]
  melting point: 263 to 268 °C

## COCCN(C)Cc1ccc(NC(=O)C#Cc2ccc(-c3ccc(Cl)cc3)cc2)cc1 [Example 3.11, 3-(4′-chlorobiphenyl-4-yl)propynoic acid-(4-{[(2-methoxyethyl)methylamino]methyl}phenyl)amide]
  melting point: 130 to 133 °C

## O=C(CCc1ccc(CN2CCN3CCCC3C2)cc1)Nc1ccc(-c2ccc(Cl)cc2)cc1 (centres unmarked) [Example 6.16, N-(4′-chlorobiphenyl-4-yl)-3-[4-(hexahydropyrrolo[1,2-a]pyrazin-2-ylmethyl)phenyl]propionamide]
  melting point: 177 °C

## COc1cc(NC(=O)C#Cc2ccc(C(F)(F)F)cc2Cl)ccc1OCCN1CCC(OC)CC1 [Example 4.274, 3-(2-chloro-4-trifluoromethylphenyl)propynoic acid-{3-methoxy-4-[2-(4-methoxypiperidin-1-yl)ethoxy]phenyl}amide]
  melting point: 195 to 197 °C

## COc1ccc(-c2ccc(NC(=O)C#Cc3ccc(CN4CCC(Nc5ccccn5)CC4)cc3)cc2)cc1 [Example 1.11, 3-{4-[4-(pyridin-2-ylamino)piperidin-1-ylmethyl]phenyl}propynoic acid-(4′-methoxybiphenyl-4-yl)amide]
  melting point: 196 to 197 °C
